The values that follow come from patent US20250296971A1, “GASTRIC INHIBITORY PEPTIDE RECEPTOR LIGANDS” (priority 2021, published 2025).

Experiment [1] has as its target T1, human GIP receptor (bioGIPR) (Homo sapiens, UniProt P48546).
T1 construct: Biotinylate extracellular of the human GIP receptor (bioGIPR, Proteros biostructures GmbH, lot #02/2b); purchased Proteros biostructures GmbH lot #02/2b
T1 sequence (P48546 22-138 limits assumed): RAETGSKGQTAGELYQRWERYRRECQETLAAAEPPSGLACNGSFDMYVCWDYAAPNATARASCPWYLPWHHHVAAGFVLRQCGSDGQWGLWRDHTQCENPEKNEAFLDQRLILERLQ
The experiment is described as follows: Surface plasmon resonance (SPR) based binding assay. As to conditions: Single Cycle Kinetic mode, 25° C.; for t1/2 Category: SPR dissociation half-life; for Kd: SPR, 1:1 Langmuir binding model, read-out: pKD Category (converted). The method, boiled down:
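Binding was measured at 25 °C by single-cycle kinetics against a reference flow cell, with blank-run and drift correction, after capturing biotinylated GIPR extracellular domain to ~3500 RU. Running buffer: HBST, 0.1% DMSO. A 1:1 Langmuir model gave kinetic rates, KD, t1/2 and pKD.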

Experiment [2] has as its target T2, GIPR (CHO-K1-hGIPR cells) (Homo sapiens, UniProt P48546).
T2 construct: host or cells: CHO-K1
T2 sequence (P48546 22-466): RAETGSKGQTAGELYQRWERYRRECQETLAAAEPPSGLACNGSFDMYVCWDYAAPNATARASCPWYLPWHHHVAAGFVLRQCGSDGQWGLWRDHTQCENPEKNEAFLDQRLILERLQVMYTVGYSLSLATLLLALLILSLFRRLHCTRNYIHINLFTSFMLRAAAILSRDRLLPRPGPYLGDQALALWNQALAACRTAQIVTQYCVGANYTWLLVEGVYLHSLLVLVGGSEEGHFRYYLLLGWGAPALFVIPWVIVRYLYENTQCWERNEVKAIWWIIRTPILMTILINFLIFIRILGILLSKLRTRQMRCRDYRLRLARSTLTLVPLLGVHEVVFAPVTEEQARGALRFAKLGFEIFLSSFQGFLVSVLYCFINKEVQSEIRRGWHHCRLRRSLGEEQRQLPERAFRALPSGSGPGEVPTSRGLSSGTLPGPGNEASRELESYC
The experiment is described as follows: FACS binding assay. As to conditions: read-out: pIC50 Category (converted). The essentials: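 CHO-K1 cells expressing human GIPR, washed in PBS/1% FCS, then stained with 1 μg/mL APC-streptavidin for 30 min on ice.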

Where [3] appears, read: competition with 20 nM GIP-057, 4° C. for 1 hour.

Molecules are shown by their SMILES. Where two headings read alike, the source gives them in different places. *1 amine or outer side, *2 acyl side, *3 side chain or, on linkers, in order; H or OH if unused. Where a SMILES comes first, the peptide text is derived from it. Bridges are numbered along the chain shown (N, C = ends). [ ]: non-standard residue; d: D form. The star is where a group is joined. X3 = O=C(O)CN1CCN(CC(=O)O)CCN(CC(=O)NCCCOCCOCCOCCCN*)CCN(CC(=O)O)CC1; NH(1-deoxy-D-glucityl) = OC[C@@H](O)[C@@H](O)[C@H](O)[C@@H](O)CN*; DOTA = O=C(O)CN1CCN(CC(=O)O)CCN(CC(=O)*)CCN(CC(=O)O)CC1; Trp(5-Br) = N[C@@H](Cc1c[nH]c2ccc(Br)cc12)C(=O)O; Trp(5-Cl) = N[C@@H](Cc1c[nH]c2ccc(Cl)cc12)C(=O)O; Pyridine(2,6-diCH2) = c1cc(C[*:1])nc(C[*:2])c1; X10 = O=C(CN(CC(=O)NC(CO)CO)CC(=O)*)NC(CO)CO; Pro(4R-NH2) = N[C@H]1CN[C@H](C(=O)O)C1; X4 = O=C(NCCN[*:2])c1cccc(C[*:1])c1; Glutaryl = O=C(CCCC(=O)[*:2])[*:1]; Hyp = O=C(O)[C@@H]1C[C@@H](O)CN1; X1 = O=C(CN1CCC(N[*:1])CC1)[*:2]; Suc = O=C(CCC(=O)[*:2])[*:1]; hSer = N[C@@H](CCO)C(=O)O; NHCH(CH2OH)2 = OCC(CO)N*; dDap = NC[C@@H](N)C(=O)O; Api = NC1(C(=O)O)CCNCC1; Thp = NC1(C(=O)O)CCOCC1; Aib = CC(C)(N)C(=O)O

Consider `CC[C@H](C)[C@@H]1NC(=O)[C@H](CC(C)C)NC(=O)C2(CCOCC2)NC(=O)[C@@H](NC(=O)[C@@H](CC(C)C)NC(=O)[C@H](CCC(=O)O)NC(=O)[C@@H]2C[C@@H](O)CN2C(=O)[C@H](Cc2c[nH]c3ccc(Br)cc23)NC(=O)[C@H](Cc2c[nH]c3ccccc23)NC(=O)[C@H](CCO)NC(C)=O)CSCc2cccc(n2)CSC[C@@H](C(N)=O)NC1=O` [GIP-197, Ac-Hse-Trp-5Brw-Hyp-Glu-leu-[Cys(2Lut)-Thp-Leu-Ile-Cys]-NH2] (Ac-[hSer]W[Trp(5-Br)][Hyp]E[dL]C[Thp]LIC-NH2; linker 7-11 via Pyridine(2,6-diCH2)), for which, in experiment [1], the “t1/2 Category” value was “A (t1/2 values>15 min)” and the Kd was less than 1 nM. For the same compound, in experiment [2] (competition with 20 nM GIP-057, 4° C., 1 hour), the IC50 is less than 10 nM.
On to `CC[C@H](C)[C@@H]1NC(=O)[C@H](CC(C)C)NC(=O)C(C)(C)NC(=O)[C@@H](NC(=O)[C@@H](CC(C)C)NC(=O)[C@H](CCC(=O)O)NC(=O)[C@@H]2CCCN2C(=O)[C@H](Cc2c[nH]c3ccc(Cl)cc23)NC(=O)[C@H](Cc2c[nH]c3ccccc23)NC(=O)[C@H](CC(=O)O)NC(=O)CCC(=O)NCCCOCCOCCOCCCNC(=O)CN2CCN(CC(=O)O)CCN(CC(=O)O)CCN(CC(=O)O)CC2)CSCc2cccc(c2)C(=O)NCCNC1=O` [GIP-359, DOTA-Ttds-Asp-Trp-5Clw-Pro-Glu-leu-[Cys(3CbBn)-Aib-Leu-Ile-en]] ({X3-Suc}-DW[Trp(5-Cl)]PE[dL]C[Aib]LI; linker 7-C via X4), for which, in experiment [1], the “t1/2 Category” value was “C (t1/2 between 5 min and 2.1 min)”; the Kd is 1 to 7.94 nM. Also, the IC50 in experiment [2] (setting [3]) was 10 to 79.4 nM.
As for `CC[C@H](C)[C@@H]1NC(=O)[C@H](CC(C)C)NC(=O)C2(CCN(C(=O)CN3CCN(CC(=O)O)CCN(CC(=O)O)CCN(CC(=O)O)CC3)CC2)NC(=O)[C@@H](NC(=O)[C@@H](CC(C)C)NC(=O)[C@H](CCC(=O)O)NC(=O)[C@@H]2C[C@@H](N)CN2C(=O)[C@H](Cc2c[nH]c3ccc(Cl)cc23)NC(=O)[C@H](Cc2c[nH]c3ccccc23)NC(=O)[C@H](CC(=O)O)NC(=O)CCCC(=O)NC[C@H](O)[C@@H](O)[C@H](O)[C@H](O)CO)CSCc2cccc(n2)CSC[C@@H](C(=O)NC2CCN(CC(=O)N[C@H](CCC(=O)NC(CO)CO)C(=O)NC(CO)CO)CC2)NC1=O` [GIP-372, AGLU-Glutar-Asp-Trp-5Clw-Tap-Glu-leu-[Cys(2Lut)-Apc(DOTA)-Leu-Ile-Cys]-APAc-GLUSEROL] ({NH(1-deoxy-D-glucityl)-Glutaryl}-DW[Trp(5-Cl)][Pro(4R-NH2)]E[dL]C[Api](DOTA)LIC[X1][dE](NHCH(CH2OH)2)-{NHCH(CH2OH)2}; linker 7-11 via Pyridine(2,6-diCH2)), in experiment [1], the “t1/2 Category” value is “A (t1/2 values>15 min)” and the Kd was less than 1 nM. In experiment [2] (setting [3]), the IC50 was less than 10 nM.
Take `CC[C@H](C)[C@@H]1NC(=O)[C@H](CC(C)C)NC(=O)C2(CCN(C(=O)CN3CCN(CC(=O)O)CCN(CC(=O)O)CCN(CC(=O)O)CC3)CC2)NC(=O)[C@@H](NC(=O)[C@@H](CC(C)C)NC(=O)[C@H](CCC(=O)O)NC(=O)[C@@H]2C[C@@H](N)CN2C(=O)[C@H](Cc2c[nH]c3ccc(Cl)cc23)NC(=O)[C@H](Cc2c[nH]c3ccccc23)NC(=O)[C@H](CC(=O)O)NC(=O)CN(CC(=O)NC(CO)CO)CC(=O)NC(CO)CO)CSCc2cccc(n2)CSC[C@@H](C(=O)NC2CCN(CC(=O)N[C@H](CNC(=O)CN(CC(=O)NC(CO)CO)CC(=O)NC(CO)CO)C(N)=O)CC2)NC1=O` [GIP-373, NTASEROL-Asp-Trp-5Clw-Tap-Glu-leu-[Cys(2Lut)-Apc(DOTA)-Leu-Ile-Cys]-APAc-dap(NTASEROL)-NH2] (X10-DW[Trp(5-Cl)][Pro(4R-NH2)]E[dL]C[Api](DOTA)LIC[X1][dDap](X10)-NH2; linker 7-11 via Pyridine(2,6-diCH2)): in experiment [1], the “t1/2 Category” value is “A (t1/2 values>15 min)” and the Kd was less than 1 nM. Moreover, the IC50 in experiment [2] (setting [3]) is less than 10 nM.
As to `CC[C@H](C)[C@@H]1NC(=O)[C@H](CC(C)C)NC(=O)C2(CCN(C(=O)CN3CCN(CC(=O)O)CCN(CC(=O)O)CCN(CC(=O)O)CC3)CC2)NC(=O)[C@@H](NC(=O)[C@@H](CC(C)C)NC(=O)[C@H](CCC(=O)O)NC(=O)[C@@H]2C[C@@H](N)CN2C(=O)[C@H](Cc2c[nH]c3ccc(Cl)cc23)NC(=O)[C@H](Cc2c[nH]c3ccccc23)NC(=O)[C@H](CC(=O)O)NC(=O)CN(CC(=O)NC(CO)CO)CC(=O)NC(CO)CO)CSCc2cccc(n2)CSC[C@@H](C(=O)NC2CCN(CC(=O)N[C@H](CCC(=O)NC(CO)CO)C(=O)NC(CO)CO)CC2)NC1=O` [GIP-374, NTASEROL-Asp-Trp-5Clw-Tap-Glu-leu-[Cys(2Lut)-Apc(DOTA)-Leu-Ile-Cys]-APAc-GLUSEROL] (X10-DW[Trp(5-Cl)][Pro(4R-NH2)]E[dL]C[Api](DOTA)LIC[X1][dE](NHCH(CH2OH)2)-{NHCH(CH2OH)2}; linker 7-11 via Pyridine(2,6-diCH2)), in experiment [1], the “t1/2 Category” value is “A (t1/2 values>15 min)” and the Kd is less than 1 nM. The IC50 in experiment [2] (setting [3]) was less than 10 nM.
